{
  "source": "paper PMC4279406",
  "about": "“Simultaneous targeting of PI3Kδ and a PI3Kδ-dependent MEK1/2-Erk1/2 pathway for therapy in pediatric B-cell acute lymphoblastic leukemia” (Oncotarget, 2014)",
  "key": {"[1]": {"target": "T1, PI3Kα (Homo sapiens, UniProt P42336)", "T1 construct": "purchased Millipore (Kinase Profiler Services, United Kingdom)", "T1 sequence (P42336 whole entry, canonical isoform)": "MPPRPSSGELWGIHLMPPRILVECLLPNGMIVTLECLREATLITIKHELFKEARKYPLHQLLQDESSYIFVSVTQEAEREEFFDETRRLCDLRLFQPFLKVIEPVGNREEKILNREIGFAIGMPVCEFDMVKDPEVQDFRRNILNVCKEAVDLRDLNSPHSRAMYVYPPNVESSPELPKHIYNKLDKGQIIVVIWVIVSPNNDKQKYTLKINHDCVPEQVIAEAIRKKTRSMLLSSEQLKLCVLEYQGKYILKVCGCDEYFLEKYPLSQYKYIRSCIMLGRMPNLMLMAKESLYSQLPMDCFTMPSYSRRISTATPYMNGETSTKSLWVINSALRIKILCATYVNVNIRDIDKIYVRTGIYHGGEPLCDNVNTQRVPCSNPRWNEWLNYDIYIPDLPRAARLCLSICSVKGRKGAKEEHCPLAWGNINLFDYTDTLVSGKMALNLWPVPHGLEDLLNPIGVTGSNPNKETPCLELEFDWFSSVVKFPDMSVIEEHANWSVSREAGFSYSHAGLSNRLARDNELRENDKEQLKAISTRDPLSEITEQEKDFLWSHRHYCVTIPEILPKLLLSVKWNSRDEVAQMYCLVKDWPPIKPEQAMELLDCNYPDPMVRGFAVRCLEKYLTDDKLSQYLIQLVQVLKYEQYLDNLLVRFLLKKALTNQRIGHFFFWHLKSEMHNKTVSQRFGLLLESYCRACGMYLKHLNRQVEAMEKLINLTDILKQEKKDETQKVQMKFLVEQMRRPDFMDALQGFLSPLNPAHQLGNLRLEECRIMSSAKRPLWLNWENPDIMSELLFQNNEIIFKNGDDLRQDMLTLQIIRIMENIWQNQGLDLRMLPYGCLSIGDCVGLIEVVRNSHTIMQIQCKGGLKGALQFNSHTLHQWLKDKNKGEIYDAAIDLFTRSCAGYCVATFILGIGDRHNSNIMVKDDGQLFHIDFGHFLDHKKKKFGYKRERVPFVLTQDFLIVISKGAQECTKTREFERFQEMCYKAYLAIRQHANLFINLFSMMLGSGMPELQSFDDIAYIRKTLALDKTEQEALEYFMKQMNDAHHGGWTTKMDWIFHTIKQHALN", "T1 sequence (P27986 whole entry partner, canonical isoform)": "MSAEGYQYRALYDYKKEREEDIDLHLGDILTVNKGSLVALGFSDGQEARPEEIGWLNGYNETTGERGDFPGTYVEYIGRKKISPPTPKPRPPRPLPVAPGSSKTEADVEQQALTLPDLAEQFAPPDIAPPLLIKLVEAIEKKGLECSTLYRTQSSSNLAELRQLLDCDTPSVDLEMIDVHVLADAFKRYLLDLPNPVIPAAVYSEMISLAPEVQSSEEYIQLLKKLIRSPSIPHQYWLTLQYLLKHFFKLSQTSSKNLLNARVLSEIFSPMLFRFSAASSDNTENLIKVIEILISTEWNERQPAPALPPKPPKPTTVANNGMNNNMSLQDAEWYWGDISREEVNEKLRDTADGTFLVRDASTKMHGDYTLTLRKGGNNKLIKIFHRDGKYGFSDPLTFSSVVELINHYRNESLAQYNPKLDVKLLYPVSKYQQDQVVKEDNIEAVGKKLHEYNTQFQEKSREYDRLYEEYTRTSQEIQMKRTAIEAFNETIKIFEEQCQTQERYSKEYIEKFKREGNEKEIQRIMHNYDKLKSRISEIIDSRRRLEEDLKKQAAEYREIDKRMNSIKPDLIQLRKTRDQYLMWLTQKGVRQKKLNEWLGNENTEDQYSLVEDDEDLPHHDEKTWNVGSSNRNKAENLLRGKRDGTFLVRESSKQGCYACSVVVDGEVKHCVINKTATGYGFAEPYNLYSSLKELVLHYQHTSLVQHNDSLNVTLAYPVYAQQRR", "assay": "Kinase Profiler lipid kinase IC50", "format": "biochemical", "settings": "ATP at Km of the isoform; 10-point half-log dilution from 1000 nM", "procedure": "(§1) Figure 1 Structure of X-370 and its inhibitory activity against lipid kinases (A) Chemical structure of X-370. (B) X-370 docked to the crystal structure of PI3Kδ. The model was generated based on the co-crystal structure of PI3Kδ and ZSTK474 (PDB ID: 2WXL). (C) IC50 of X-370 against PI3Kδ increased along with ATP concentration. […] Data was obtained from Kinase Profiler Services (Millipore, United Kingdom). Briefly, X-370 was solved in DMSO at a concentration of 10 mM, 10-point kinase inhibitory activity was measured over concentrations in a half-log dilution series started at 1000 nM with ATP at a concentration consistent with Km of each isoform of class I PI3K and IC50s were calculated. Relative kinase activity in the presence of 10 μM X-370 compared to DMSO control was measured for the rest of lipid kinases. TEXT PRINTED IN THE PICTURE: (D) X-370: IC50 (nM): 7 (Isoform: PI3Kδ); IC50 (nM): 433 (Isoform: PI3Kα); IC50 (nM): >1,000 (Isoform: PI3Kγ); IC50 (nM): >1,000 (Isoform: PI3Kβ); Relative Activity (%) X-370 (10 μM): 55 (Lipid Kinases: PI3KC2α); Relative Activity (%) X-370 (10 μM): 63 (Lipid Kinases: PI3KC2γ); Relative Activity (%) X-370 (10 μM): 105 (Lipid Kinases: PIP4K2α); Relative Activity (%) X-370 (10 μM): 100 (Lipid Kinases: PIP5K1α); Relative Activity (%) X-370 (10 μM): 103 (Lipid Kinases: PIP5K1γ) DOUBTS OF THE COPYIST ABOUT THIS PICTURE: Panel D, left table (Isoform / IC50): no substance label is printed in this table; assigned to X-370, the only label printed in the panel (head of the right table)\n(§2) In vitro kinase profile assays were analyzed by the Kinase Profiler Service (Millipore, United Kingdom) following its guidelines. A GST-tagged human p110δ and regulatory full-length p85 were co-expressed in insect cell Sf9. Recombinant protein was extracted by affinity purification. The PI3K kinase activity was determined in the increasing concentration of ATP and X-370 with PI3-Kinase HTRF™ Assay kit (Millipore) as described previously."}, "[2]": {"target": "T2, PI3Kγ (Homo sapiens, UniProt P48736)", "T2 construct": "purchased Millipore (Kinase Profiler Services, United Kingdom)", "T2 sequence (P48736 whole entry, canonical isoform)": "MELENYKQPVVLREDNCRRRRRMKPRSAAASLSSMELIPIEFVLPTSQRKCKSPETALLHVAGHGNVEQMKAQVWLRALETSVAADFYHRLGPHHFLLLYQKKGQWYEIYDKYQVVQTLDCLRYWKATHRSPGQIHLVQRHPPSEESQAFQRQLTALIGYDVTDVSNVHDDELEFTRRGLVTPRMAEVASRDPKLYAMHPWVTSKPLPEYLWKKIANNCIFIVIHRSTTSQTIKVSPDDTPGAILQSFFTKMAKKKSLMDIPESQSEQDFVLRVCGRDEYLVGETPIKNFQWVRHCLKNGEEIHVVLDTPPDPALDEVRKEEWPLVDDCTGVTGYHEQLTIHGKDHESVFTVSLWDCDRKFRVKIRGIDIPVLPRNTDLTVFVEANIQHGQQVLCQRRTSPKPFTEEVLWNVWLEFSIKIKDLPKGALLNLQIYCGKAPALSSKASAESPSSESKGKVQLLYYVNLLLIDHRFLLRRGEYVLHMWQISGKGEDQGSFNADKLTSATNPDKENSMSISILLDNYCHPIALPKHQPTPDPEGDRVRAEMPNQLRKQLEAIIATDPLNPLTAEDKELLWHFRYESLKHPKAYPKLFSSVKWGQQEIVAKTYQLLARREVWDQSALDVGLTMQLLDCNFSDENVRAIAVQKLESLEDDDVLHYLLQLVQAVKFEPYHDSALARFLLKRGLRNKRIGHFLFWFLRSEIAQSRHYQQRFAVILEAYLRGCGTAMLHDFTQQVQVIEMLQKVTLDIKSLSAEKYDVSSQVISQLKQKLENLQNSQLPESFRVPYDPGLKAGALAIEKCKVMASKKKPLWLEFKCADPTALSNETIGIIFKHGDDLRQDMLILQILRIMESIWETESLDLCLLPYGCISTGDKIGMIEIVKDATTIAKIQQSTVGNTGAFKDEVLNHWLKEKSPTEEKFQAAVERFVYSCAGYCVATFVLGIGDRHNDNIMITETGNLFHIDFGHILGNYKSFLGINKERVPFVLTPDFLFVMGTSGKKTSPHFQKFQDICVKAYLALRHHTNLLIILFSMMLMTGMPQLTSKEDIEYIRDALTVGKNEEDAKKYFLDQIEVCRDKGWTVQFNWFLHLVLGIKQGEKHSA", "assay": "Kinase Profiler lipid kinase IC50", "format": "biochemical", "settings": "ATP at Km of the isoform; 10-point half-log dilution from 1000 nM", "procedure": "as §1, §2"}, "[3]": {"target": "T3, PI3Kβ (Homo sapiens, UniProt P42338)", "T3 construct": "purchased Millipore (Kinase Profiler Services, United Kingdom)", "T3 sequence (P42338 whole entry, canonical isoform)": "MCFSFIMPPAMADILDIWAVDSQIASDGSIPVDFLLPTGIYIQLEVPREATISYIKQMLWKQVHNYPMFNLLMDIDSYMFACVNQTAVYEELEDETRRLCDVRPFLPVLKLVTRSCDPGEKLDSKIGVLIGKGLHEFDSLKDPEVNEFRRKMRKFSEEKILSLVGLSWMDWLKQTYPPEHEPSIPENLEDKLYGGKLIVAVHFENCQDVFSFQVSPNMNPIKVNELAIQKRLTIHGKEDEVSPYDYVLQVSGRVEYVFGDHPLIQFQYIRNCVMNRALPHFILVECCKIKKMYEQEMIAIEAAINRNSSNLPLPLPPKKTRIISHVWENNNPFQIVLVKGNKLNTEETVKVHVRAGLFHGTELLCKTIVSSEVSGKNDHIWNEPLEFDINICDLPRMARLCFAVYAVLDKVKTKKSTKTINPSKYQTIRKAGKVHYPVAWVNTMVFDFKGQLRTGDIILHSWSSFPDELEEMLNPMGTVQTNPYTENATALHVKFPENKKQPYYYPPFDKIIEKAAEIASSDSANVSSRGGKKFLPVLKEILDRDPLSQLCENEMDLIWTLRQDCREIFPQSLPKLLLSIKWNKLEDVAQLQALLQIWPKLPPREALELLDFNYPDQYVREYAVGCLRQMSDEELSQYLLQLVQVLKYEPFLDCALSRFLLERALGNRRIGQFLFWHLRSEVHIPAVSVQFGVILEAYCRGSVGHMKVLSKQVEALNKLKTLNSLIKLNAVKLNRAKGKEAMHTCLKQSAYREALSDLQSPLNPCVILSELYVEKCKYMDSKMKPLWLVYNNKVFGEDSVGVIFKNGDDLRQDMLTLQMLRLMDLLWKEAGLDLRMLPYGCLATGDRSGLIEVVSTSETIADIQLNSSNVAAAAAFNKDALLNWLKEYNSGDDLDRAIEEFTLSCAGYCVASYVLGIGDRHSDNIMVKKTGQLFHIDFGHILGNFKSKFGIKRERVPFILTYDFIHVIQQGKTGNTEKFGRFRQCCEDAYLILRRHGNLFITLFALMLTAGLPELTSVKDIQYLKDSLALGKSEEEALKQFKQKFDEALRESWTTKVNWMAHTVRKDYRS", "T3 sequence (P27986 whole entry partner, canonical isoform)": "as the sequence (P27986 whole entry partner, canonical isoform) above", "assay": "Kinase Profiler lipid kinase IC50", "format": "biochemical", "settings": "ATP at Km of the isoform; 10-point half-log dilution from 1000 nM", "procedure": "as §1, §2"}, "[4]": {"system": "Raji-R cells", "assay": "Signaling by Western blot in Raji-R cells", "format": "cell-based, human", "settings": "1 h", "procedure": "Raji and SU-DHL-6 cells were treated with X-370 for 1 h (left panel) or treated with 0.5 μM X-370 for indicated times (middle panel). Right panel, Raji cells were incubated in fresh medium following treatment with 0.5 μM X-370 for 1 h. Indicated proteins were detected. (B) Raji-R (the rituximab-resistant derivatives of Raji cells) cells were resistant to X-370. The activity of X-370 on the proliferation of Raji parent and Raji-R cells was determined by CCK-8 assay as described in the methods section. (C) X-370 blocked phosphorylation of Akt but not Erk1/2 in Raji-R cells. Raji-R cells were treated with X-370 for 1h and indicated proteins were detected. Data shown are representative from three independent experiments.\nSimultaneous targeting of PI3Kδ and a PI3Kδ-dependent MEK1/2-Erk1/2 pathway for therapy in pediatric B-cell acute lymphoblastic […]\nCells were treated as indicated conditions and then subjected to lysate to perform standard Western blot as described previously1. Briefly, whole-cell lysates and SDS-loading buffer diluted cell fractions were analyzed on SDS-PAGE gels. […]\nRaji cells were treated with or without X-370 at 1 μM, 5μM and 10 μM for 24, 48 and 72 hours, thenwere measured using the Caspase-Glo® 3/7 Assay (Promega, US) following the protocol and relative caspase-3/7 activity was normalized to cell number which DMSO control was the base line. […]"}},
  "note": "pIC50: −log10 of the molar value.",
  "data": [
    {"smiles": "O=C(N1CCCC1)N1CCC(n2cnc3c(-n4c(C(F)F)nc5ccccc54)nc(N4CCOCC4)nc32)CC1", "note": "[X-370]", "values": [
      {"measurement": "pIC50", "setting": "[1]", "value": 6.36},
      {"measurement": "pIC50", "setting": "[2]", "value": "< 6.00"},
      {"measurement": "pIC50", "setting": "[3]", "value": "< 6.00"},
      {"measurement": "Akt and S6k1 phosphorylation", "setting": "[4]", "value": "significantly inhibited"},
      {"measurement": "level of phosphorylated Erk1/2", "setting": "[4]", "value": "negligible activity"}
    ]}
  ]
}
